Data published in US20260240846A1, “ZAK ALPHA KINASE (MAP3K20) INHIBITORS FOR USE IN THE TREATMENT OF ANEMIA” (UNIVERSIDAD DE MURCIA, priority 2023, published 2026).

Columns and labels:
K562 cells = experiment: Transcriptomic analysis (RNA seq) and RT-qPCR of erythroid genes in K562 cells; format: cell-based, human
Method: FIG. 12. Nilotinib promotes an erythroid gene expression profile in human K562 cells. K562 cells were pretreated with the indicated concentrations of 0.1 μM nilotinib, for 24 h and then differentiated with 50 μM hemin for additional 24 h. RNA was extracted and transcriptomic analysis performed by RNA seq. (A) Heatmap of selected erythroid genes. (B) Validation of nilotinib-induced erythroid genes by RT-qPCR. Each dot represents a biological replicate and the mean±SEM for each group is also shown.

[1] = test system: RPS19-deficient CD34+ cells; experiment: Human RPS19-edited model of DBA: erythroid differentiation with EPO; format: cell-based; conditions: EPO 13 days, 0.1 μM nilotinib (FIGS. 14A-14C)
Method: FIG. 14. Nilotinib promotes erythropoiesis in a human RPS19-edited model of DBA. RPS19 gene was edited in primary human CD34^+/CD133^+ cells with CRISPR-Cas9 technology and the cells were then differentiated with EPO for 13 days in the presence of absence of 0.1 μM nilotinib. (A) Representative flow cytometry dot plots of CD235-APC vs. CD71-FITC from control and RPS19-edited cells at 13 days of differentiation with EPO. (B) Cell surface expression of CD235A from control (mock) and RPS19-deficient cells treated with DMSO or nilotinib. (C) Percentage of mature erythrocytes (CD71^−/CD235A^+) vs. percentage of erythroid progenitors (CD71^+/CD235A^−) in RPS19-deficient cells treated with DMSO or 0.1 μM nilotinib. (D) CASP1 activity of control and RPS19-deficient cells treated with DMSO or 0.1 μM nilotinib. MFI, mean fluorescence intensity.

zebrafish larvae = experiment: Chemical treatment of zebrafish larvae by bath immersion; counting of neutrophils and erythrocytes; format: in vivo, Zebrafish (Danio rerio H.)
Method: FIG. 3. ZAKα regulates hematopoiesis in zebrafish through the Nlrp1 inflammasome. Number of neutrophils (B, D, H), erythrocytes (F) and macrophages (J), and caspase-1 activity (K) in 2 dpf larvae either treated from 1 to 2 dpf by bath immersion with 1 μM nilotinib and/or 100 μM anisomycin (A-D) or obtained by injecting one-cell stage embryos with standard or zaka crRNAs/Cas9 complexes (E-K). Representative images of neutrophils (A, C, G), erythrocytes (E) and macrophages (I) are also shown. Each dot represents one individual and the mean±SEM for each group is also shown. P values were calculated using one-way ANOVA and Tukey's multiple range test (B) or Student's t-test (D, F, H, J, K). n.s., non-significant; *P<0.05; **P<0.01; ***P<0.001.
FIG. 6. NLRP1 is activated by phosphorylation of the linker domain after activation of ZAKα and pharmacological inhibition of this signaling pathway promotes erythropoiesis in DBA. (A-D) Number of neutrophils (A-C), and caspase-1 activity (D) in 2 dpf larvae obtained by injection of one-cell stage embryos with human NLRP1 (wild type-WT, S107A and S107D) and treated from 1 to 2 dpf by bath immersion with 1 μM nilotinib (B-D). Representative images of neutrophils (arrows) are also shown in C. (E, F) BMMCs from a DBA patient were incubated for 2 weeks in human methylcellulose complete medium at 37° C. in the presence or absence of the indicated concentrations of nilotinib, and colonies were counted using standard morphological criteria. Each dot represents one individual and the mean±SEM for each group is also shown. P values were calculated by one-way ANOVA and Tukey's multiple range test. n.s., non-significant; *P<0.05; **P<0.01; ***P<0.001; ****P<0.0001.
FIG. 10. Imatinib and dasatinib promote erythropoiesis in human and zebrafish. (A) K562 cells were pretreated with the indicated concentrations of nilotinib, imatinib or dasatinib for 24 h and then differentiated with 50 μM hemin for 24 h. The amounts of NLRP1, GATA1, phosphorylated P38, total ZAKα and ACTB were then evaluated by western blot. (B) Zebrafish larvae were treated from 1 to 2 dpf with the indicated concentrations of nilotinib, imatinib or dasatinib. Representative images and number of neutrophils in larvae of 2 dpf treated by bath immersion with the indicated concentrations of imatinib and dasatinib. Each dot represents one individual and the mean±SEM for each group is also shown. P values were calculated by one-way ANOVA and Tukey's multiple range test. n.s., non-significant. ***P<0.001; ****P<0.0001.
FIG. 11. Ponatinib and bosutinib promote erythropoiesis in human and zebrafish. (A) K562 cells were pretreated with the indicated concentrations of nilotinib, ponatinib and bosutinib for 24 h and then differentiated with 50 μM hemin for the indicated times. The amounts of NLRP1, total ZAKα, GATA1, phosphorylated P38 and ACTB were then evaluated by western blot. (B) Number of neutrophils in larvae of 2 dpf treated by bath immersion with the indicated concentrations of ponatinib and bosutinib. Each dot represents one individual and the mean±SEM for each group is also shown. P values were calculated by one-way ANOVA and Tukey's multiple range test. n.s., non-significant, *P<0.05. **P<0.01. ***P<0.001.
Zebrafish (Danio rerio H.) were obtained from the Zebrafish International Resource Center and mated, staged, raised and processed as described in The Zebarfish Book. The lines Tg(mpx:eGFP)^t114, Tg(lyz:DsRED2)^n250, Tg(mfap4:mCherry)^ump6, Tg(gata1a:DsRed)^sd2 Tg(runx1:GAL4)^utn6), Tg(UAS-E1B:NTR-mCherry) and casper (mitfa^w2/w2; mpv17^a9/a9) were previously described. spint1a^hi2217Tg/hi2217Tg was isolated from insertional mutagenesis screens. The experiments performed comply with the Guidelines of the European Union Council (Directive 2010/63/EU) and the Spanish RD 53/2013. The experiments and procedures performed were approved by the Bioethical Committees of the University of Murcia (approval number #669/2020). […]

With `Cc1cn(-c2cc(NC(=O)c3ccc(C)c(Nc4nccc(-c5cccnc5)n4)c3)cc(C(F)(F)F)c2)cn1` [nilotinib] the “transcript levels of erythroid genes (RT-qPCR)” value (K562 cells; K562 cells incubated with nilotinib) was “increased transcript levels”, the “expression of erythroid genes (transcriptomic analysis)” value (K562 cells; K562 cells, 0.1 μM nilotinib 24 h, control cells and upon hemin 24 h, RNA seq) was “robustly induced” and the “defective erythropoiesis of RPS19-deficient CD34+ cells” value [1] was “rescued defective erythropoiesis”. For the same compound, the “neutrophilia in the Spint1a-deficient model of neutrophilic inflammation” value (zebrafish larvae; larvae 2 dpf, bath immersion 1 to 2 dpf, 1 μM nilotinib) was “reduced neutrophilia”, the “neutrophilia induced by NLRP1 with phosphomimetic S107D mutation” value (zebrafish larvae; larvae expressing human NLRP1 S107D, 1 μM nilotinib 1 to 2 dpf) was “failed to reverse” and the “neutrophilia induced by wild type NLRP1” value (zebrafish larvae; larvae expressing human wild type NLRP1, 1 μM nilotinib 1 to 2 dpf) was “able to abrogate”. For the same compound, the erythropoiesis in zebrafish (zebrafish larvae; nilotinib (FIGS. 3E and 3F)) was “Promote erythropoiesis in zebrafish” and the neutrophil number (zebrafish larvae; wild type larvae 2 dpf, bath immersion 1 to 2 dpf, 1 μM nilotinib, 100 μM anisomycin) was “caused a decrease in neutrophil number”.
